In ChEMBL document CHEMBL1143529, “A general carbometalation, three component coupling strategy for the synthesis of alpha,beta-unsaturated gamma-sultines including thio-rofecoxib, a selective COX-2 inhibitor” (Bioorg Med Chem Lett, 2005):

Columns and labels:
[1] = biological target: T1, Prostaglandin G/H synthase 2 (Homo sapiens) (UniProt P35354); experiment: In vitro percent inhibition of prostaglandin G/H synthase 2 at 100 uM in microsomal enzyme assay
T1 sequence (whole entry): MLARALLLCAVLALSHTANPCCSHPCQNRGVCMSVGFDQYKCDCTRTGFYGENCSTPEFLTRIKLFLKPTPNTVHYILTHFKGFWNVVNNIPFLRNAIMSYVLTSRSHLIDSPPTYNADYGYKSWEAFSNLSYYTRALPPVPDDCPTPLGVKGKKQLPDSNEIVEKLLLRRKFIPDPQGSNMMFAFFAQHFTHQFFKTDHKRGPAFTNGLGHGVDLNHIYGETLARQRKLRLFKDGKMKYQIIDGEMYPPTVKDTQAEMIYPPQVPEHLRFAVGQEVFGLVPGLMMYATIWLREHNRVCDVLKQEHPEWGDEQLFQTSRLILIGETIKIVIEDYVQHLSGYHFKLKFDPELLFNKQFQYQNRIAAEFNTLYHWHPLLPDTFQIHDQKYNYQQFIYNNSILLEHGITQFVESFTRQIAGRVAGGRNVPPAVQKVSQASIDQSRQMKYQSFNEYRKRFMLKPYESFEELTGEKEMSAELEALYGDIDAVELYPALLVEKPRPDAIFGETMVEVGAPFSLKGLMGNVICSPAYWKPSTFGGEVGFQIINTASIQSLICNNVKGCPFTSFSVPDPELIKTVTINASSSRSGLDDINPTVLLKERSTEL

[2] = biological target: T2, Prostaglandin G/H synthase 2 (Homo sapiens, UniProt P35354); experiment: In vitro inhibitory concentration against prostaglandin G/H synthase 2 in microsomal enzyme assay
T2 sequence (P35354 whole entry): T1 sequence (whole entry)

inhibition [1]: 13%
IC50 [2]: > 100 µM
Compound: CS(=O)(=O)c1ccc(C2=C(c3ccccc3)S(=O)OC2)cc1 (configuration not stated)
